This passage reports TGI and GI50 results from PubChem BioAssay (NCI).

The structures appear in SMILES notation. “And” between values parts separate entries of the source, which are not always exact repeats. Identical values can stand only once.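 Test compounds were applied to cells in 96-well plates for 48 hours at 5 doses. GI50: concentration for 50% inhibition of growth. TGI: concentration producing complete growth inhibition.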

Test systems include OVCAR-5 ovarian; SNB-75 CNS; SF-539 CNS; UO-31 renal; SK-MEL-5 melanoma; HCC-2998 colon; RPMI-8226 leukemia; SK-MEL-2 melanoma; NCI-H23 lung; MDA-MB-435.
Common to all, as to assay: NCI anticancer screen, dose series, 48 h

As for `C=CC(C1=CC(=O)C(OC)=CC1=O)c1ccccc1` (stereo not drawn), the TGI in the assay with OVCAR-5 ovarian came to 39 µM; in the assay on SNB-75 CNS it was 39.1 µM; with SF-539 CNS, 29.9 µM; in the assay on UO-31 renal, 29.6 µM; with SK-MEL-5 melanoma it was 30 µM; in the assay on HCC-2998 colon, 30.7 µM. In addition, the TGI is more than 67.6 µM with RPMI-8226 leukemia, 30.3 µM with SK-MEL-2 melanoma, 32.5 µM in the assay on NCI-H23 lung and 28.3 µM with MDA-MB-435.

In the case of `COC(=O)C(=O)C(C(=O)C(=O)Nc1nc2ccc(C)cc2s1)c1nc2ccc([N+](=O)[O-])cc2[nH]c1=O` (stereo not drawn), the TGI in the assay with OVCAR-5 ovarian, in the assay on SNB-75 CNS, with SF-539 CNS, in the assay on UO-31 renal, with SK-MEL-5 melanoma and in the assay on HCC-2998 colon was more than 100 µM throughout. The TGI with RPMI-8226 leukemia, with SK-MEL-2 melanoma, in the assay on NCI-H23 lung and with MDA-MB-435 was more than 100 µM throughout.

Turning to `O=C1c2ccccc2S(=O)(=O)N1CSC(=S)N1CCCCC1`, the GI50 with OVCAR-5 ovarian was more than 100 µM; in the assay on SNB-75 CNS it was more than 100 µM; with SF-539 CNS it was more than 100 µM; in the assay on UO-31 renal, more than 100 µM; in the assay on SK-MEL-5 melanoma, 33.2 µM; with HCC-2998 colon, more than 100 µM. The GI50 is 0.205 µM in the assay with RPMI-8226 leukemia, more than 100 µM with SK-MEL-2 melanoma, more than 100 µM in the assay on NCI-H23 lung and more than 100 µM in the assay on MDA-MB-435. Besides, the TGI in the assay with OVCAR-5 ovarian, in the assay on SNB-75 CNS, in the assay with SF-539 CNS, in the assay with UO-31 renal, in the assay with SK-MEL-5 melanoma and in the assay on HCC-2998 colon was more than 100 µM throughout. For the same molecule, the TGI with RPMI-8226 leukemia is 0.607 µM; in the assay with SK-MEL-2 melanoma it was more than 100 µM; in the assay with NCI-H23 lung, more than 100 µM; in the assay with MDA-MB-435, more than 100 µM.

With `COc1ccc(C(SCC(N)C(=O)O)(c2ccccc2)c2ccccc2)cc1` (stereo not drawn), the GI50 with OVCAR-5 ovarian was 4.82 µM; in the assay with SNB-75 CNS it was 0.447 µM; in the assay on SF-539 CNS, 0.0721 µM; with UO-31 renal it was 13.6 µM; in the assay on SK-MEL-5 melanoma, 0.0623 µM; with HCC-2998 colon it was 0.246 µM. Also, the GI50 with RPMI-8226 leukemia was 0.0419 µM; in the assay with SK-MEL-2 melanoma it was 5.03 µM; in the assay on NCI-H23 lung it was 0.414 µM; with MDA-MB-435, 0.0306 µM. Further, the TGI is more than 100 µM in the assay on OVCAR-5 ovarian; 88.1 µM in the assay on SNB-75 CNS; 15.1 µM in the assay with SF-539 CNS; more than 100 µM in the assay on UO-31 renal; 19.7 µM in the assay on SK-MEL-5 melanoma; 12.2 µM in the assay with HCC-2998 colon. The TGI was more than 56.5 µM in the assay with RPMI-8226 leukemia, more than 79.5 µM in the assay with SK-MEL-2 melanoma and more than 87.4 µM in the assay on NCI-H23 lung.

Consider `CN(C)CCNC(=O)C(C)(C)Oc1ccc(C(=O)c2ccc(Cl)cc2)cc1Cl`, for which the TGI with OVCAR-5 ovarian was 28.9 µM; with SNB-75 CNS, 24.8 µM; in the assay on SF-539 CNS, 22.2 µM; in the assay with UO-31 renal it was 22.8 µM; in the assay with SK-MEL-5 melanoma, 6.11 µM and 2.97 µM; in the assay on HCC-2998 colon, 16.7 µM. The TGI was more than 48.7 µM in the assay with RPMI-8226 leukemia, 32.6 µM in the assay on SK-MEL-2 melanoma, 21.9 µM with NCI-H23 lung and 17.2 µM in the assay on MDA-MB-435. Moreover, the GI50 was 9.71 µM in the assay with SNB-75 CNS, 1.53 µM in the assay on SK-MEL-5 melanoma, 3.32 µM in the assay on RPMI-8226 leukemia and 4.77 µM with NCI-H23 lung.

Regarding `N#Cc1ccccc1NC(=O)C(=O)c1c(O)c2ccccc2oc1=O`, the TGI in the assay on OVCAR-5 ovarian, with SNB-75 CNS, with SF-539 CNS, in the assay with UO-31 renal, in the assay with SK-MEL-5 melanoma and in the assay with HCC-2998 colon was more than 100 µM each time. Further, the TGI in the assay with RPMI-8226 leukemia, in the assay with SK-MEL-2 melanoma, in the assay on NCI-H23 lung and with MDA-MB-435 was more than 100 µM in each case.

For `Cl.Fc1c[c-]c(-c2ccccn2)c(F)c1.[Pt].c1ccc(P(c2ccccc2)C([PH+](c2ccccc2)c2ccccc2)[PH+](c2ccccc2)c2ccccc2)cc1`, the GI50 in the assay with OVCAR-5 ovarian was 2.97 µM; with SNB-75 CNS, 2.01 µM; with SF-539 CNS, 3.18 µM; in the assay with UO-31 renal, 2.27 µM; in the assay on SK-MEL-5 melanoma it was 2.08 µM; with HCC-2998 colon, 4.43 µM. For the same molecule, the GI50 in the assay on RPMI-8226 leukemia was 1.68 µM; with SK-MEL-2 melanoma it was 2.54 µM; with NCI-H23 lung, 3.06 µM; in the assay with MDA-MB-435, 3.4 µM. For the same molecule, the TGI in the assay with OVCAR-5 ovarian was more than 100 µM; in the assay on SNB-75 CNS, 9.5 µM; with SF-539 CNS, 11.3 µM; in the assay on UO-31 renal, 7.65 µM; with SK-MEL-5 melanoma, 4.53 µM; in the assay on HCC-2998 colon, 29.6 µM. In addition, the TGI with RPMI-8226 leukemia is 5.51 µM; in the assay with SK-MEL-2 melanoma, 6.7 µM; in the assay with NCI-H23 lung, 61.1 µM; in the assay on MDA-MB-435, 16 µM.

`C[C@H](Nc1ncnc2nc[nH]c12)c1cc2ccc(F)cc2nc1-c1ccccn1`: the GI50 is more than 77.2 µM in the assay with OVCAR-5 ovarian; 2.68 µM with SNB-75 CNS; more than 94.7 µM in the assay on SF-539 CNS; 9.3 µM in the assay on UO-31 renal; 91.2 µM in the assay on SK-MEL-5 melanoma; more than 100 µM in the assay with HCC-2998 colon. The GI50 in the assay with RPMI-8226 leukemia, in the assay with SK-MEL-2 melanoma, in the assay with NCI-H23 lung and in the assay with MDA-MB-435 was more than 100 µM each time. Moreover, the TGI in the assay with OVCAR-5 ovarian was more than 100 µM; in the assay with SNB-75 CNS, 60.5 µM; in the assay on SF-539 CNS, more than 100 µM; in the assay with UO-31 renal, more than 100 µM; in the assay on SK-MEL-5 melanoma it was more than 100 µM; with HCC-2998 colon it was more than 100 µM. For the same molecule, the TGI in the assay on RPMI-8226 leukemia, in the assay with SK-MEL-2 melanoma, in the assay on NCI-H23 lung and in the assay on MDA-MB-435 was more than 100 µM in each case.

For `CCCCCCCCN(CCCCCCCC)CCCCCCNc1cc(OC)cc2cccnc12`, the GI50 in the assay with OVCAR-5 ovarian is 15.3 µM; in the assay on SNB-75 CNS, 15.3 µM; in the assay with SF-539 CNS, 3.18 µM; in the assay on UO-31 renal it was 10.9 µM; in the assay on SK-MEL-5 melanoma, 8.53 µM; in the assay with HCC-2998 colon, 13.1 µM. The GI50 in the assay on RPMI-8226 leukemia is 7.75 µM; in the assay with SK-MEL-2 melanoma, 5.8 µM; in the assay with NCI-H23 lung it was 2.42 µM; in the assay on MDA-MB-435 it was 3.59 µM. For the same molecule, the TGI in the assay with OVCAR-5 ovarian was 29.6 µM; in the assay with SNB-75 CNS, 29 µM; in the assay on SF-539 CNS, 11.5 µM; in the assay with UO-31 renal, 24.4 µM; with SK-MEL-5 melanoma it was 21.1 µM; in the assay on HCC-2998 colon, 26.2 µM. In addition, the TGI with RPMI-8226 leukemia amounted to 75.4 µM; in the assay on SK-MEL-2 melanoma, 19.1 µM; in the assay with NCI-H23 lung it was 6.2 µM; in the assay with MDA-MB-435, 12.8 µM.
